Source: publication PMC4638191, “Multicomponent reaction-based synthesis and biological evaluation of tricyclic heterofused quinolines with multi-trypanosomatid activity” (European Journal of Medicinal Chemistry, 2015)
Where two headings read alike, the source gives them in different places.

Tests used:
[1] = tested on: rat skeletal myoblast L6 cells; experiment: cells; details: L6, read-out: L6 cells IC50
Protocol: (§1) Cytotoxicity against mammalian cells was assessed using microtitre plates following a described procedure [58]. Briefly, rat skeletal muscle L6 cells were seeded at 1 × 10^4 mL^−1 in 200 μL of growth medium containing different compound concentrations. The plates were incubated for 6 days at 37 °C and 20 μL resazurin was then added to each well. After a further 8 h incubation, the fluorescence was determined using a Spectramax plate reader.

[2] = tested on: T. cruzi strain MHOM/ES/2203/BCN590 (Tcl) epimastigote forms; experiment: Activity against epimastigotes of T. cruzi (cell counting); details: mean ± SD of duplicate experiments performed at least twice
[3] = in vitro; details: rat, rat skeletal muscle L6 cells
Protocol: as §1

[4] = molecular target: Electrophorus electricus AChE (EeAChE) (Electrophorus electricus, UniProt O42275); experiment: biochemical; type: biochemical; details: mean ± SEM
Sequence of Electrophorus electricus AChE (EeAChE) (O42275 24-633): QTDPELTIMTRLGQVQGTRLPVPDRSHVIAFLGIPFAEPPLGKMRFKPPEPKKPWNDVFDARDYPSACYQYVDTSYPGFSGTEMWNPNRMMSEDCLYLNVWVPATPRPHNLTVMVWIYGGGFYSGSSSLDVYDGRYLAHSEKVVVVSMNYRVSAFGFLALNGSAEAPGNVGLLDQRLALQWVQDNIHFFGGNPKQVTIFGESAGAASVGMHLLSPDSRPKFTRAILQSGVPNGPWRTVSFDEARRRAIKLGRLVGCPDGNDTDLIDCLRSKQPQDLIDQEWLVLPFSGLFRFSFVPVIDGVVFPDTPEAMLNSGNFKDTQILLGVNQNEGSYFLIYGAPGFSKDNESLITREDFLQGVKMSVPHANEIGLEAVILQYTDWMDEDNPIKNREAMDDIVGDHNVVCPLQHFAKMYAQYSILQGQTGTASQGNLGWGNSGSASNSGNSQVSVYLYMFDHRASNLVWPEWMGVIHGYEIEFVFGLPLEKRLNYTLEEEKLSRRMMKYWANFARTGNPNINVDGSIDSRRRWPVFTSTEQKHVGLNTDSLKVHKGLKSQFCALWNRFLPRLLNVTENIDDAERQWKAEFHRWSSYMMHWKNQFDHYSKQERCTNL

[5] = tested on: bloodstream form T. brucei (strain 221); experiment: Trypanocidal activity against cultured bloodstream form T. brucei (resazurin); details: for IC50: mean of triplicate ± SEM; for IC90: pH 7.4, read-out: T. brucei IC90
Protocol: T. brucei in the logarithmic phase of growth were diluted back to 2.5 × 10^4 mL^−1 and aliquoted into 96-well plates. The compounds were then added at a range of concentrations and the plates incubated at 37 °C. Each drug concentration was tested in triplicate. Resazurin was added after 48 h and the plates incubated for a further 16 h and the plates then read in a Spectramax plate reader. Results were analysed using GraphPad Prism.

[6] = tested on: L. infantum strain MCAN/ES/92/BCN722 promastigote forms; experiment: Activity against promastigotes of L. infantum (acid phosphatase); type: cell-based, Leishmania infantum; details: promastigote form, mean ± SD of duplicate experiments performed at least twice
[7] = for Pe: PAMPA-BBB, PBS:EtOH 70:30, mean ± SD of three independent experiments; for Pe (prediction) of BBB permeation: class from PAMPA-BBB Pe
Protocol: Thus, the brain passive permeability of the novel compounds was evaluated in vitro through the widely used PAMPA-BBB method [[50]

[8] = Trypanosoma cruzi, read-out: T. cruzi IC50, epimastigote form
[9] = read-out: T. cruzi IC50, epimastigote form
[10] = SILi: selectivity index as the ratio of cytotoxic to anti-L. infantum IC50 values, L6 IC50 / L. infantum IC50
[11] = SITb: selectivity index as the ratio of cytotoxic to anti-T. brucei IC50 values, L6 IC50 / T. brucei IC50
[12] = SITc: selectivity index as the ratio of cytotoxic to anti-T. cruzi IC50 values, L6 IC50 / T. cruzi IC50
[13] = Trypanosoma brucei, pH 7.4, read-out: T. brucei IC50, bloodstream form, pH 7.4
[14] = read-out: T. brucei IC50, bloodstream form, pH 7.4

| SMILES | IC50 [1] [µM] | IC50 [2, 8] [µM] | IC50 [2, 9] [µM] | selectivity ratio at 6 days [3, 10] | selectivity ratio at 6 days [3, 11] | selectivity ratio at 6 days [3, 12] | IC50 [4] [µM] | IC50 [5, 13] [µM] | IC90 ([5]; Trypanosoma brucei) [µM] | IC50 ([6]; Leishmania infantum) [µM] | IC50 [6] [µM] | Pe [7] | Pe (prediction) of BBB permeation [7] | IC50 [5, 14] [µM] |
| --- | --- | --- | --- | --- | --- | --- | --- | --- | --- | --- | --- | --- | --- | --- |
| NCc1ccc(-c2nc3ccc(Cl)cc3c3c2CCCN3Cc2ccccc2)cc1 [Compound 3, 4-{1-Benzyl-9-chloro-1,2,3,4-tetrahydrobenzo[h][1,6]naphthyridin-5-yl}benzylamine] | 6.78 ± 1.26 | 9.47 | 9.5 ± 2.5 | 0.2 | 6.8 | 0.7 | 3.67 ± 0.55 | 1 ± 0.03 | 1.19 ± 0.02 | ~30 | 31.1 ± 2.9 | 7.4 ± 0.2 10^−6 cm s^−1 | CNS+ (compounds of high BBB permeation (CNS+): Pe (10^−6 cm s^−1) > 5.25) | – |
| N#Cc1ccc(-c2nc3ccc(Cl)cc3c3c2CCN3)cc1 [Compound 26, 4-{8-Chloro-2,3-dihydro-1H-pyrrolo[3,2-c]quinolin-4-yl}benzonitrile] | – | > 150 | – | – | – | – | 1.19 ± 0.15 | > 30 | > 30 | > 200 | – | 6.8 ± 0.3 10^−6 cm s^−1 | CNS+ (compounds of high BBB permeation (CNS+): Pe (10^−6 cm s^−1) > 5.25) | – |
| N#Cc1ccc(-c2nc3ccc(Cl)cc3c3c2CCCN3)cc1 [Compound 27, 4-{9-Chloro-1,2,3,4-tetrahydrobenzo[h][1,6]naphthyridin-5-yl}benzonitrile] | 38.8 ± 1.7 | 147 ± 19 | – | 2.5 | 6.4 | 0.3 | 1.13 ± 0.17 | 6.07 ± 0.54 | 10.5 ± 0.2 | 15.3 ± 3.6 | – | 14.3 ± 0.1 10^−6 cm s^−1 | CNS+ (compounds of high BBB permeation (CNS+): Pe (10^−6 cm s^−1) > 5.25) | – |
| N#Cc1ccc(-c2nc3ccc(Cl)cc3c3c2CCCCN3)cc1 [Compound 28, 4-{10-Chloro-2,3,4,5-tetrahydro-1H-azepino[3,2-c]quinolin-6-yl}benzonitrile] | – | 64.6 ± 12.5 | – | – | – | – | 2.2 ± 0.3 | 17.3 ± 2.1 | 28.6 ± 6.7 | 13.7 ± 2.2 | – | 20.0 ± 1.1 10^−6 cm s^−1 | CNS+ (compounds of high BBB permeation (CNS+): Pe (10^−6 cm s^−1) > 5.25) | – |
| N#Cc1ccc(-c2nc3cc(Cl)ccc3c3c2CCCN3)cc1 [Compound 29, 4-{8-Chloro-1,2,3,4-tetrahydrobenzo[h][1,6]naphthyridin-5-yl}benzonitrile] | – | 39.4 ± 0.2 | – | – | – | – | 3.27 ± 0.43 | > 30 | > 30 | 19 ± 3 | – | 16.2 ± 0.1 10^−6 cm s^−1 | CNS+ (compounds of high BBB permeation (CNS+): Pe (10^−6 cm s^−1) > 5.25) | – |
| NCc1ccc(-c2nc3ccc(Cl)cc3c3c2CCN3)cc1 [Compound 30, 4-{8-Chloro-2,3-dihydro-1H-pyrrolo[3,2-c]quinolin-4-yl}benzylamine] | 2.54 ± 0.92 | ~30 | 37.3 ± 11 | 0.4 | 2.8 | 0.1 | 0.87 ± 0.08 | 0.92 ± 0.05 | 1.57 ± 0.03 | 6.5 ± 1.4 | – | 7.4 ± 2.6 10^−6 cm s^−1 | CNS+ (compounds of high BBB permeation (CNS+): Pe (10^−6 cm s^−1) > 5.25) | – |
| NCc1ccc(-c2nc3ccc(Cl)cc3c3c2CCCN3)cc1 [Compound 31, 4-{9-Chloro-1,2,3,4-tetrahydrobenzo[h][1,6]naphthyridin-5-yl}benzylamine] | 8.92 ± 0.25 | 50.5 ± 14.3 | – | 0.8 | 3.7 | 0.2 | 0.97 ± 0.02 | 2.44 ± 0.13 | 3.48 ± 0.05 | 11.6 ± 2.5 | – | 4.6 ± 0.2 10^−6 cm s^−1 | – | – |
| N#Cc1ccc(-c2nc3cc(Cl)ccc3cc2CCCN)cc1 [Compound 35, 4-[3-(3-Aminopropyl)-7-chloroquinolin-2-yl]benzonitrile] | 20.4 ± 0.4 | 78.8 ± 1.7 | – | 1.3 | 4.9 | 0.3 | – | ~5 | 5.61 ± 0.05 | ~15 | 16.2 ± 4 | 18.3 ± 0.6 10^−6 cm s^−1 | CNS+ (compounds of high BBB permeation (CNS+): Pe (10^−6 cm s^−1) > 5.25) | 4.16 ± 0.07 |
| N#Cc1ccc([C@H]2Nc3ccc(Cl)cc3[C@@H]3OCCC[C@H]23)cc1 [Compound 37] | – | 676 ± 37 | – | – | – | – | – | > 30 | > 30 | > 200 | – | 7.0 ± 0.7 10^−6 cm s^−1 | CNS+ (compounds of high BBB permeation (CNS+): Pe (10^−6 cm s^−1) > 5.25) | – |
| Clc1ccc2nc(-c3ccco3)c3c(c2c1)OCCC3 [Compound 42, 9-Chloro-5-(2-furyl)-3,4-dihydro-2H-pyrano[3,2-c]quinoline] | – | 76.1 ± 7.8 | – | – | – | – | 16.3 ± 1.5 | 21.7 ± 1.2 | 29.3 ± 0.5 | 38.4 ± 21.6 | – | 3.5 ± 0.4 10^−6 cm s^−1 | – | – |
| Clc1ccc2nc(-c3cccs3)c3c(c2c1)OCCC3 [Compound 43, 9-Chloro-3,4-dihydro-5-(2-thienyl)-2H-pyrano[3,2-c]quinoline] | – | > 250 | – | – | – | – | 9.39 ± 0.82 | 18 ± 0.4 | 27.6 ± 1.1 | 51.4 ± 2.3 | – | 14.4 ± 1.6 10^−6 cm s^−1 | CNS+ (compounds of high BBB permeation (CNS+): Pe (10^−6 cm s^−1) > 5.25) | – |
| OCCCc1cc2cc(Cl)ccc2nc1-c1ccco1 [Compound 44, 3-[6-chloro-2-(2-furyl)quinolin-3-yl]-1-propanol] | – | 29.3 ± 12 | – | – | – | – | – | > 25 | 70.6 ± 1.5 | 19.3 ± 11.3 | – | 10.3 ± 1.5 10^−6 cm s^−1 | CNS+ (compounds of high BBB permeation (CNS+): Pe (10^−6 cm s^−1) > 5.25) | 35.7 ± 1.8 |
| OCCCc1cc2cc(Cl)ccc2nc1-c1cccs1 [Compound 45, 3-[6-chloro-2-(2-thienyl)quinolin-3-yl]-1-propanol] | – | 51.7 ± 19.4 | – | – | – | – | – | > 25 | 42.9 ± 1.5 | 37.3 ± 2.3 | – | 28.4 ± 1.2 10^−6 cm s^−1 | CNS+ (compounds of high BBB permeation (CNS+): Pe (10^−6 cm s^−1) > 5.25) | 28 ± 0.7 |
| N#CCCc1cc2cc(Cl)ccc2nc1-c1cccs1 [Compound 47, 3-[6-Chloro-2-(2-thienyl)quinolin-3-yl]propanenitrile] | – | 51.7 ± 5.1 | – | – | – | – | – | > 25 | > 30 | 23.3 ± 5.9 | – | 17.9 ± 1.1 10^−6 cm s^−1 | CNS+ (compounds of high BBB permeation (CNS+): Pe (10^−6 cm s^−1) > 5.25) | > 30 |
| CCN(CC)CCCc1cc2cc(Cl)ccc2nc1-c1cccs1 [Compound 50, N-{3-[6-Chloro-2-(2-thienyl)quinolin-3-yl]propyl}-N,N-diethylamine] | 14.7 ± 2.3 | 77.6 ± 11.2 | – | 1.1 | 2.3 | 0.2 | – | ~5 | 12.6 ± 0.9 | ~15 | 13.6 ± 1.5 | 20.9 ± 0.5 10^−6 cm s^−1 | CNS+ (compounds of high BBB permeation (CNS+): Pe (10^−6 cm s^−1) > 5.25) | 6.33 ± 0.94 |
